Source: PubChem BioAssay (NCI)
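Five compound concentrations were applied to cells in 96-well plates for 48 hours; endpoints were derived by simple linear interpolation of the resulting dose-response curve. Here, GI50 denotes the concentration required for 50% inhibition of growth. TGI: concentration producing complete growth inhibition.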

Legend:
Assay in all cases: NCI-60 cell line screen, 48 h
NCI-H522 lung = tested on: NCI-H522 lung
SK-MEL-5 melanoma = tested on: SK-MEL-5 melanoma
NCI-H23 lung = tested on: NCI-H23 lung
UACC-62 melanoma = tested on: UACC-62 melanoma
SNB-19 CNS = tested on: SNB-19 CNS
SNB-75 CNS = tested on: SNB-75 CNS
RXF 393 renal = tested on: RXF 393 renal
NCI-H226 lung = tested on: NCI-H226 lung
SK-OV-3 ovarian = tested on: SK-OV-3 ovarian
OVCAR-5 ovarian = tested on: OVCAR-5 ovarian

SMILES: COc1ccc(S(=O)(=O)N(C(C)=O)c2ccccc2/C=C/c2cc[n+]([O-])cc2)cc1
- GI50 (NCI-H522 lung): 0.225 µM
- TGI (NCI-H522 lung): 1.65 µM
- GI50 (SK-MEL-5 melanoma): 0.703 µM
- TGI (SK-MEL-5 melanoma): > 10 µM
- GI50 (NCI-H23 lung): 1.22 µM
- TGI (NCI-H23 lung): > 10 µM
- GI50 (UACC-62 melanoma): 0.457 µM
- TGI (UACC-62 melanoma): > 10 µM
- GI50 (SNB-19 CNS): 0.418 µM
- TGI (SNB-19 CNS): > 10 µM
- GI50 (SNB-75 CNS): 0.25 µM
- TGI (SNB-75 CNS): > 10 µM
- GI50 (RXF 393 renal): 0.456 µM
- TGI (RXF 393 renal): > 6.85 µM
- GI50 (NCI-H226 lung): 2.48 µM
- TGI (NCI-H226 lung): > 10 µM
- GI50 (SK-OV-3 ovarian): 1.05 µM
- TGI (SK-OV-3 ovarian): > 10 µM
- GI50 (OVCAR-5 ovarian): 3.26 µM
- TGI (OVCAR-5 ovarian): > 10 µM

SMILES: O=C([O-])CC(=O)[O-].[NH-][C@@H]1CCCC[C@H]1[NH-].[Pt+4]
- GI50 (NCI-H522 lung): 18.7 µM
- TGI (NCI-H522 lung): > 100 µM
- GI50 (SK-MEL-5 melanoma): 16.9 µM
- TGI (SK-MEL-5 melanoma): > 100 µM
- GI50 (NCI-H23 lung): 16.9 µM
- TGI (NCI-H23 lung): > 97.3 µM
- GI50 (UACC-62 melanoma): 20.2 µM
- TGI (UACC-62 melanoma): > 100 µM
- GI50 (SNB-19 CNS): 32.1 µM
- TGI (SNB-19 CNS): > 100 µM
- GI50 (SNB-75 CNS): > 35.9 µM
- TGI (SNB-75 CNS): > 100 µM
- GI50 (RXF 393 renal): > 79 µM
- TGI (RXF 393 renal): > 100 µM
- GI50 (NCI-H226 lung): 5.9 µM
- TGI (NCI-H226 lung): > 80.6 µM
- GI50 (SK-OV-3 ovarian): > 100 µM
- TGI (SK-OV-3 ovarian): > 100 µM
- GI50 (OVCAR-5 ovarian): > 63.9 µM
- TGI (OVCAR-5 ovarian): > 100 µM

SMILES: CC(SCc1ccccc1)C(=O)O (stereo not drawn)
- TGI (NCI-H522 lung): > 100 µM
- TGI (SK-MEL-5 melanoma): > 100 µM
- TGI (NCI-H23 lung): > 100 µM
- TGI (UACC-62 melanoma): > 100 µM
- TGI (SNB-19 CNS): > 100 µM
- TGI (SNB-75 CNS): > 100 µM
- TGI (RXF 393 renal): > 100 µM
- TGI (NCI-H226 lung): > 100 µM
- TGI (SK-OV-3 ovarian): > 100 µM
- TGI (OVCAR-5 ovarian): > 100 µM

SMILES: COc1cc2cnc3c4cc(OCc5ccccc5)ccc4ccc3c2cc1OC
- TGI (NCI-H522 lung): > 100 µM
- TGI (SK-MEL-5 melanoma): 76 µM
- TGI (NCI-H23 lung): 75.7 µM
- TGI (UACC-62 melanoma): > 100 µM
- TGI (SNB-19 CNS): > 100 µM
- TGI (SNB-75 CNS): 18.7 µM
- TGI (RXF 393 renal): 47.6 µM
- TGI (NCI-H226 lung): 72.6 µM
- TGI (SK-OV-3 ovarian): 56.8 µM
- TGI (OVCAR-5 ovarian): > 100 µM

SMILES: CCCCn1c(=O)c(/C=C/C(=O)/C=C/c2cc3ccccc3n(CCCC)c2=O)cc2ccccc21
- GI50 (NCI-H522 lung): 1.86 µM
- TGI (NCI-H522 lung): 4.07 µM
- GI50 (SK-MEL-5 melanoma): 1.77 µM
- TGI (SK-MEL-5 melanoma): 3.28 µM
- GI50 (UACC-62 melanoma): 1.61 µM
- TGI (UACC-62 melanoma): 3.06 µM
- GI50 (SNB-19 CNS): 1.63 µM
- TGI (SNB-19 CNS): 3.24 µM
- GI50 (SNB-75 CNS): 2.8 µM
- TGI (SNB-75 CNS): 8.12 µM
- GI50 (RXF 393 renal): 1.8 µM
- TGI (RXF 393 renal): 3.32 µM
- GI50 (NCI-H226 lung): 2.51 µM
- TGI (NCI-H226 lung): 6 µM
- GI50 (SK-OV-3 ovarian): 3.59 µM
- TGI (SK-OV-3 ovarian): 9.35 µM
- GI50 (OVCAR-5 ovarian): 1.96 µM
- TGI (OVCAR-5 ovarian): 3.76 µM

SMILES: CNC(=O)CN(CC(=O)O)C(=O)NC
- TGI (NCI-H522 lung): > 100 µM
- TGI (SK-MEL-5 melanoma): > 100 µM
- TGI (NCI-H23 lung): > 100 µM
- TGI (UACC-62 melanoma): > 100 µM
- TGI (SNB-19 CNS): > 100 µM
- TGI (SNB-75 CNS): > 100 µM
- TGI (RXF 393 renal): > 100 µM
- TGI (SK-OV-3 ovarian): > 100 µM
- TGI (OVCAR-5 ovarian): > 100 µM

SMILES: N#Cc1cc(S(=O)(=O)Nc2nc3ccccc3o2)c(SCc2ccccc2)cc1Cl
- GI50 (NCI-H522 lung): 17 µM
- TGI (NCI-H522 lung): 40.4 µM
- GI50 (SK-MEL-5 melanoma): 17 µM
- TGI (SK-MEL-5 melanoma): 31.9 µM
- GI50 (NCI-H23 lung): 26.1 µM
- TGI (NCI-H23 lung): 54.3 µM
- GI50 (UACC-62 melanoma): 20.3 µM
- TGI (UACC-62 melanoma): 52.2 µM
- GI50 (SNB-19 CNS): 20.9 µM
- TGI (SNB-19 CNS): 56.1 µM
- GI50 (SNB-75 CNS): 25.5 µM
- TGI (SNB-75 CNS): 59.3 µM
- GI50 (RXF 393 renal): 23.9 µM
- TGI (RXF 393 renal): 53.1 µM
- GI50 (NCI-H226 lung): 31.6 µM
- TGI (NCI-H226 lung): 80.8 µM
- GI50 (OVCAR-5 ovarian): 27 µM
- TGI (OVCAR-5 ovarian): 52 µM

SMILES: CCC(CO)Nc1nc2c(c(=O)n(C)c(=O)n2C)n1CCO (stereo not drawn)
- TGI (SK-MEL-5 melanoma): > 100 µM
- TGI (NCI-H23 lung): > 100 µM
- TGI (UACC-62 melanoma): > 100 µM
- TGI (SNB-19 CNS): > 100 µM
- TGI (SNB-75 CNS): > 100 µM
- TGI (RXF 393 renal): > 100 µM
- TGI (NCI-H226 lung): > 100 µM
- TGI (SK-OV-3 ovarian): > 100 µM
- TGI (OVCAR-5 ovarian): > 100 µM

SMILES: C=C1C(OC(C)=O)CC(OC(C)=O)C2(C)C(OC(C)=O)C(OC(C)=O)C3=C(C)C(OC(=O)/C=C/c4ccccc4)CC(C(OC(C)=O)C12)C3(C)C (stereo not drawn)
- TGI (NCI-H522 lung): > 100 µM
- TGI (SK-MEL-5 melanoma): > 100 µM
- TGI (UACC-62 melanoma): > 100 µM
- TGI (SNB-19 CNS): > 100 µM
- TGI (SNB-75 CNS): 43.4 µM
- TGI (RXF 393 renal): > 100 µM
- TGI (NCI-H226 lung): > 100 µM
- TGI (SK-OV-3 ovarian): > 100 µM
- TGI (OVCAR-5 ovarian): > 100 µM

SMILES: COc1ccc2c(c1)CCc1c-2n[nH]c1-c1[nH]nc2c1CCc1cc(OC)ccc1-2
- TGI (NCI-H522 lung): 67.4 µM
- TGI (SK-MEL-5 melanoma): > 100 µM
- TGI (NCI-H23 lung): > 100 µM
- TGI (UACC-62 melanoma): > 100 µM
- TGI (SNB-19 CNS): > 100 µM
- TGI (SNB-75 CNS): 61.3 µM
- TGI (NCI-H226 lung): 85.9 µM
- TGI (SK-OV-3 ovarian): > 100 µM
- TGI (OVCAR-5 ovarian): > 100 µM

SMILES: NC(Cc1ccccc1)c1nccs1 (stereo not drawn)
- TGI (NCI-H522 lung): > 100 µM
- TGI (SK-MEL-5 melanoma): > 100 µM
- TGI (NCI-H23 lung): > 100 µM
- TGI (UACC-62 melanoma): > 100 µM
- TGI (SNB-19 CNS): > 100 µM
- TGI (SNB-75 CNS): > 100 µM
- TGI (NCI-H226 lung): > 100 µM
- TGI (SK-OV-3 ovarian): > 100 µM
- TGI (OVCAR-5 ovarian): > 100 µM

SMILES: CCN(Cc1c(F)cccc1Cl)c1ccc(CO)c(Cl)c1
- GI50 (NCI-H522 lung): 13.8 µM
- TGI (NCI-H522 lung): 28.5 µM
- GI50 (SK-MEL-5 melanoma): 0.5 µM
- TGI (SK-MEL-5 melanoma): 20.1 µM
- GI50 (NCI-H23 lung): 13.9 µM
- TGI (NCI-H23 lung): 33.8 µM
- GI50 (UACC-62 melanoma): 0.0419 µM
- TGI (UACC-62 melanoma): 0.269 µM
- GI50 (SNB-19 CNS): 15.7 µM
- TGI (SNB-19 CNS): 40.1 µM
- GI50 (SNB-75 CNS): 11.1 µM
- TGI (SNB-75 CNS): 25.5 µM
- GI50 (RXF 393 renal): 6.31 µM
- TGI (RXF 393 renal): 27 µM
- GI50 (SK-OV-3 ovarian): 2.52 µM
- TGI (SK-OV-3 ovarian): 13 µM
- TGI (OVCAR-5 ovarian): 0.106 µM

SMILES: CCC[CH2][Sn]1([CH2]CCC)[S]CC[N]1S(=O)(=O)c1ccc(C)cc1
- GI50 (NCI-H522 lung): 0.217 µM
- TGI (NCI-H522 lung): 0.508 µM
- GI50 (SK-MEL-5 melanoma): 1.68 µM
- TGI (SK-MEL-5 melanoma): 3.2 µM
- GI50 (NCI-H23 lung): 0.638 µM
- TGI (NCI-H23 lung): 1.94 µM
- GI50 (UACC-62 melanoma): 1.47 µM
- TGI (UACC-62 melanoma): 3.13 µM
- GI50 (SNB-19 CNS): 1.45 µM
- TGI (SNB-19 CNS): 2.75 µM
- GI50 (SNB-75 CNS): 1.13 µM
- TGI (SNB-75 CNS): 2.38 µM
- GI50 (NCI-H226 lung): 2.03 µM
- TGI (NCI-H226 lung): 3.45 µM
- GI50 (OVCAR-5 ovarian): 2.82 µM
- TGI (OVCAR-5 ovarian): 6.12 µM

SMILES: CC(=O)NN1C(=O)C(Cc2ccccc2)c2ccccc21 (stereo not drawn)
- TGI (SK-MEL-5 melanoma): > 100 µM
- TGI (NCI-H23 lung): > 100 µM
- TGI (UACC-62 melanoma): > 100 µM
- TGI (SNB-19 CNS): > 100 µM
- TGI (SNB-75 CNS): > 100 µM
- TGI (NCI-H226 lung): > 100 µM
- TGI (SK-OV-3 ovarian): > 100 µM
- TGI (OVCAR-5 ovarian): > 100 µM

SMILES: CN1CCN(CCCOc2cc(O)c3c(=O)cc(-c4ccccc4)oc3c2)CC1
- GI50 (NCI-H522 lung): 21.6 µM
- TGI (NCI-H522 lung): 47 µM
- GI50 (SK-MEL-5 melanoma): 10.3 µM
- TGI (SK-MEL-5 melanoma): 23.1 µM
- GI50 (NCI-H23 lung): 19.9 µM
- TGI (NCI-H23 lung): 43.3 µM
- GI50 (UACC-62 melanoma): 16.3 µM
- TGI (UACC-62 melanoma): 29.9 µM
- GI50 (SNB-19 CNS): 24.9 µM
- TGI (SNB-19 CNS): 63.5 µM
- GI50 (RXF 393 renal): 30.2 µM
- TGI (RXF 393 renal): 84 µM
- GI50 (NCI-H226 lung): 19.5 µM
- TGI (NCI-H226 lung): 37 µM
- GI50 (SK-OV-3 ovarian): 19.4 µM
- TGI (SK-OV-3 ovarian): 38.4 µM
- GI50 (OVCAR-5 ovarian): 20.3 µM
- TGI (OVCAR-5 ovarian): 43.6 µM

SMILES: CN(N)c1nc(N)c(C#N)c(C#N)c1C#N
- TGI (NCI-H522 lung): > 10 µM
- TGI (SK-MEL-5 melanoma): > 10 µM
- TGI (NCI-H23 lung): > 10 µM
- TGI (UACC-62 melanoma): > 10 µM
- TGI (SNB-19 CNS): > 10 µM
- TGI (SNB-75 CNS): > 10 µM
- TGI (SK-OV-3 ovarian): > 10 µM
- TGI (OVCAR-5 ovarian): > 10 µM
